Results reported in ChEMBL document CHEMBL5465560, “Selectivity Literature for EUbOPEN Chemogenomic Library” (2024).
pIC50: −log10 of the molar value.

Legend:
[1] = target: Rho-associated protein kinase 2 (Homo sapiens, UniProt O75116); assay: Selectivity interaction (Upstate Kinase Profiler service (Millipore)) EUB0000056c ROCK2; settings: at 1 µM
[2] = target: Bone morphogenetic protein receptor type-1B (Homo sapiens, UniProt O00238); assay: Selectivity interaction (KinomeScan (DiscoverX)) EUB0000655a BMPR1B; settings: at 10 µM
[3] = target: Beta-2 adrenergic receptor (Homo sapiens, UniProt P07550); assay: Selectivity interaction (GPCR panel (PDSP screen)) EUB0001079a ADRB2; settings: at 10 µM
[4] = target: T1, 3-phosphoinositide-dependent protein kinase 1 (Homo sapiens) (UniProt O15530); assay: Selectivity interaction (KinomeScan (DiscoverX)) EUB0000666a PDPK1; settings: at 10 µM
T1 sequence (whole entry): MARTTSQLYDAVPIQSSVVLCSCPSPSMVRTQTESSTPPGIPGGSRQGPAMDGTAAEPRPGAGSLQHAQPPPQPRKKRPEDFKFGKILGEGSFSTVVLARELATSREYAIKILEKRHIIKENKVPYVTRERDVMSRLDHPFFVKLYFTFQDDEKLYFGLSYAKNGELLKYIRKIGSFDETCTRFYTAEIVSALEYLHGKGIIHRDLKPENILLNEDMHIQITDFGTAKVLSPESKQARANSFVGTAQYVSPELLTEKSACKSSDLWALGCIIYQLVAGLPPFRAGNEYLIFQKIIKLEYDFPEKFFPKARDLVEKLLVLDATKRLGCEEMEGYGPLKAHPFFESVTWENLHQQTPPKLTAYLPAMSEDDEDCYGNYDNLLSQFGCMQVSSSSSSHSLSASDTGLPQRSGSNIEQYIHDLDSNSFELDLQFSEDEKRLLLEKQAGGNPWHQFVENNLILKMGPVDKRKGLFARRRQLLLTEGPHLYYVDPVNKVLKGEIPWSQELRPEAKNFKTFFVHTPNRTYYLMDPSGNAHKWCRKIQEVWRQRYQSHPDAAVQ

[5] = target: T2, Non-receptor tyrosine-protein kinase TNK1 (Homo sapiens) (UniProt Q13470); settings: at 10 µM
T2 sequence (whole entry): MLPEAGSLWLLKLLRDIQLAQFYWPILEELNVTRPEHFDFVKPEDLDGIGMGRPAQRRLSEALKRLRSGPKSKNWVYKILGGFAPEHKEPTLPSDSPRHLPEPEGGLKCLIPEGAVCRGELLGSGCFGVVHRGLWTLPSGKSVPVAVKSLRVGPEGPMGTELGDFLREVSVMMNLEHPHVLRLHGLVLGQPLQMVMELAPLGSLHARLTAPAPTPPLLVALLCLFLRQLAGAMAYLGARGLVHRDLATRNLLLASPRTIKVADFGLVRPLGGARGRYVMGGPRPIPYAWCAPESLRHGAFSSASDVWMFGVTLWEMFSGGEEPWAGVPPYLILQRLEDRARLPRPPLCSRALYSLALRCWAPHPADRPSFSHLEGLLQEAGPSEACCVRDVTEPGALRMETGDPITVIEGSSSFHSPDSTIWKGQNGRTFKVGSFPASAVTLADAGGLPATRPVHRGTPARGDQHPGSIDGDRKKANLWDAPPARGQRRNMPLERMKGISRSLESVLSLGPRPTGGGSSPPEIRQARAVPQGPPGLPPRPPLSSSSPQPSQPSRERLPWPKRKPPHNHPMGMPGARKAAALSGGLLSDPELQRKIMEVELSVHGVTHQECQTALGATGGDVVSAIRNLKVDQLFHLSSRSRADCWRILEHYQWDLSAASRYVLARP

[6] = target: T3, Dual specificity tyrosine-phosphorylation-regulated kinase 4 (Homo sapiens) (UniProt Q9NR20); assay: Selectivity interaction (Kinase panel (Z-LYTE Assay)) EUB0001632a DYRK4; settings: at 10 µM
T3 sequence (whole entry): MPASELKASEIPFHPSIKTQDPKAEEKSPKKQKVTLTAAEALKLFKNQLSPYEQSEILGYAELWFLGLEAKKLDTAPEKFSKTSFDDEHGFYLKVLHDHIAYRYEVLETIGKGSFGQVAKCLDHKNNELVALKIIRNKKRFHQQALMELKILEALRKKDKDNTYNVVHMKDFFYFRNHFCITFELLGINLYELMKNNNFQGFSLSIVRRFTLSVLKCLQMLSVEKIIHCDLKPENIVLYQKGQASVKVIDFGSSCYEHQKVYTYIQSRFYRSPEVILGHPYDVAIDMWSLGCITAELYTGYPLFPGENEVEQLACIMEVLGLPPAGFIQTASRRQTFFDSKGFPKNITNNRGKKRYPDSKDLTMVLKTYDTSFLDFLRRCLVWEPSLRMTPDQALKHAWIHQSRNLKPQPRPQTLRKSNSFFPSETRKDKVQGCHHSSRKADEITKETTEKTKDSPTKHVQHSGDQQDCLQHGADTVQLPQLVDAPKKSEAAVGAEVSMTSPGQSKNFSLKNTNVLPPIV

[7] = target: Protein kinase C beta type (Homo sapiens, UniProt P05771)
[8] = target: Misshapen-like kinase 1 (Homo sapiens, UniProt Q8N4C8); assay: Selectivity interaction (ActivX KiNativ screen (kinase selectivity in THP-1 cell lysates)) EUB0000639a MINK1; type: subcellular; settings: lysate
[9] = target: Cyclin-dependent kinase 15 (Homo sapiens) (UniProt Q96Q40); assay: Selectivity interaction (KinomeScan (DiscoverX)) EUB0000607a CDK15; settings: at 10 µM
[10] = target: Phosphorylase b kinase gamma catalytic chain, skeletal muscle/heart isoform (Homo sapiens) (UniProt Q16816); assay: Selectivity interaction (KinomeScan (DiscoverX)) EUB0000695a PHKG1; settings: at 100 nM
[11] = target: Cyclin-dependent kinase 16 (Homo sapiens) (UniProt Q00536); settings: at 10 µM
[12] = target: Non-receptor tyrosine-protein kinase TYK2 (Homo sapiens, UniProt P29597); assay: Selectivity interaction (KinomeScan (DiscoverX)) EUB0000045b TYK2
[13] = target: T2, Non-receptor tyrosine-protein kinase TNK1 (Homo sapiens); assay: Selectivity interaction (KinomeScan (DiscoverX)) EUB0000618a TNK1; settings: at 10 µM

Chain of Misshapen-like kinase 1 (Q8N4C8 whole entry, looked up): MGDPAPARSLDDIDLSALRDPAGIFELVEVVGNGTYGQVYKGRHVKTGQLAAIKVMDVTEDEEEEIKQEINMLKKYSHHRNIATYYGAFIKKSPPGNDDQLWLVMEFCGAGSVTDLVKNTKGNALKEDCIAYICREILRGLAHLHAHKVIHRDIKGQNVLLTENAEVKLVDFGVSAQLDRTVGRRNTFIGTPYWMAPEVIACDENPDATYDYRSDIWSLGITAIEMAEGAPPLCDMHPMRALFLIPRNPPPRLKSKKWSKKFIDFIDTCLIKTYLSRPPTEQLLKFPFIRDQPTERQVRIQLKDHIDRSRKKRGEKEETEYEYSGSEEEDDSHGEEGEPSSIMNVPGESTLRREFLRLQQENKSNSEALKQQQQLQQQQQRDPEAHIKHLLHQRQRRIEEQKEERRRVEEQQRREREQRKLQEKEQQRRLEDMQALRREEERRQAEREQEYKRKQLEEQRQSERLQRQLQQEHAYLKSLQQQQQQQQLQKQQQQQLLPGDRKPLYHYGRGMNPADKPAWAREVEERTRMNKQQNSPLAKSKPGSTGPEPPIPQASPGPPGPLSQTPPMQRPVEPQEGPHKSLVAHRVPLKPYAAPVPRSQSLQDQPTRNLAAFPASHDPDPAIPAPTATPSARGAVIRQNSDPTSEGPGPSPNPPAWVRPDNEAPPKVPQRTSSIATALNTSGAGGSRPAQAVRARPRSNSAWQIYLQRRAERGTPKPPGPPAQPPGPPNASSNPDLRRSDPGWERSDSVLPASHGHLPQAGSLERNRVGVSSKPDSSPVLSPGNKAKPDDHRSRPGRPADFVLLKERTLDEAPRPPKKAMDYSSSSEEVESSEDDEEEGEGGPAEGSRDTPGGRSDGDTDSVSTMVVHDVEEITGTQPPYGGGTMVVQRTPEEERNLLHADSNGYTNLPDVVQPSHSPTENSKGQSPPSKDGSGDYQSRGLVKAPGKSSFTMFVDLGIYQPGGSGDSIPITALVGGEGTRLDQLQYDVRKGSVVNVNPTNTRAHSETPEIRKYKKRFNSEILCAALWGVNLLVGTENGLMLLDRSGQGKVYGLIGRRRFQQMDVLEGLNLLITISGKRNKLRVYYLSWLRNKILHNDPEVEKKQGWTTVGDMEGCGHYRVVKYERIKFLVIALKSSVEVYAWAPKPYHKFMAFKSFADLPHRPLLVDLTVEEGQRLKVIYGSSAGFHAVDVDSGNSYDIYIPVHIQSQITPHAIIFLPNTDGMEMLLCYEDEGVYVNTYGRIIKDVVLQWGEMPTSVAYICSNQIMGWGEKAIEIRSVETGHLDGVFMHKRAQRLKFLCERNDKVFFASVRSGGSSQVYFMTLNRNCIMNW
Chain of Non-receptor tyrosine-protein kinase TYK2 (P29597 whole entry): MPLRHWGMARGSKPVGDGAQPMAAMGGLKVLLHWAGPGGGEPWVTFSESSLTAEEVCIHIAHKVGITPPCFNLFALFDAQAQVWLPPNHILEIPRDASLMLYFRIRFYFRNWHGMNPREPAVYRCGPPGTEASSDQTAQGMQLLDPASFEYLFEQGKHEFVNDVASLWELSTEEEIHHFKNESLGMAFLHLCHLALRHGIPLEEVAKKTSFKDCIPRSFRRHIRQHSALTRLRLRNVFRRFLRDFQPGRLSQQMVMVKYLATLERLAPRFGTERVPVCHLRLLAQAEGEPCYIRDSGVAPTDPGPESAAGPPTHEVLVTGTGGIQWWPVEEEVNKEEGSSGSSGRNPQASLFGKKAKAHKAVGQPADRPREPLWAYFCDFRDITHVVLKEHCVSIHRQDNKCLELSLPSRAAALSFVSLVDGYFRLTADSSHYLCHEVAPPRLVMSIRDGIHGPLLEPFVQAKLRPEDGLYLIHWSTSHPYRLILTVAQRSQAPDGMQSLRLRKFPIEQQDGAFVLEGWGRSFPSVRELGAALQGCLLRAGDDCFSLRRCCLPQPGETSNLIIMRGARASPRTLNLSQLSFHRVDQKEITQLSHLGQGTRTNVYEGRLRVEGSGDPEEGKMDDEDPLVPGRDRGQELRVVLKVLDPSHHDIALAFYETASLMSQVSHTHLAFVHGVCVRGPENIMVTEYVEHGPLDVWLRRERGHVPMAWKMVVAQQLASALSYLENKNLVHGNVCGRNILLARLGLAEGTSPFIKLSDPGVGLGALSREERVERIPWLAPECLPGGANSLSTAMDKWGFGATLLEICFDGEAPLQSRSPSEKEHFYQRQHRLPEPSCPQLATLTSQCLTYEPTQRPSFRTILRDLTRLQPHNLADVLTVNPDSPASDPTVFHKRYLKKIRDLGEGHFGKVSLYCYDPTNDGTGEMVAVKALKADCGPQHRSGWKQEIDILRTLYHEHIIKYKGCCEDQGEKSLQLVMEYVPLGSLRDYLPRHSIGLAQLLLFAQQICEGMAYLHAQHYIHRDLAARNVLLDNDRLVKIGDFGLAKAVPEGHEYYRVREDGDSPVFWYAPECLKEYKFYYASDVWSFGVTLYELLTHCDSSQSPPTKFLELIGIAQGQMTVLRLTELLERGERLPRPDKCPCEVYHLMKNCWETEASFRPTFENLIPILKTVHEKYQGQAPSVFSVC
Chain of Cyclin-dependent kinase 15 (Homo sapiens) (Q96Q40 whole entry, canonical isoform): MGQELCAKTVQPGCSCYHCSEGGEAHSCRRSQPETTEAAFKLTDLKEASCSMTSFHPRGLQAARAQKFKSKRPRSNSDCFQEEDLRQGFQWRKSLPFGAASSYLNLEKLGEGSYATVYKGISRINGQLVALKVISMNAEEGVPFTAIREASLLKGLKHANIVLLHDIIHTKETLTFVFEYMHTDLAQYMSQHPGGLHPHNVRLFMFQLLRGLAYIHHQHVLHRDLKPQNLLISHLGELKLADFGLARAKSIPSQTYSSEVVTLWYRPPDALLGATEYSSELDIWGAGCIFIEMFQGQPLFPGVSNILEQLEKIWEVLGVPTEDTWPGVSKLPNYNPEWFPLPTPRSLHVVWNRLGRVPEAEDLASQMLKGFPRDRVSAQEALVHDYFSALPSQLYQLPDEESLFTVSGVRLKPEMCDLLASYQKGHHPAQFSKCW
Chain of Beta-2 adrenergic receptor (P07550 whole entry, looked up): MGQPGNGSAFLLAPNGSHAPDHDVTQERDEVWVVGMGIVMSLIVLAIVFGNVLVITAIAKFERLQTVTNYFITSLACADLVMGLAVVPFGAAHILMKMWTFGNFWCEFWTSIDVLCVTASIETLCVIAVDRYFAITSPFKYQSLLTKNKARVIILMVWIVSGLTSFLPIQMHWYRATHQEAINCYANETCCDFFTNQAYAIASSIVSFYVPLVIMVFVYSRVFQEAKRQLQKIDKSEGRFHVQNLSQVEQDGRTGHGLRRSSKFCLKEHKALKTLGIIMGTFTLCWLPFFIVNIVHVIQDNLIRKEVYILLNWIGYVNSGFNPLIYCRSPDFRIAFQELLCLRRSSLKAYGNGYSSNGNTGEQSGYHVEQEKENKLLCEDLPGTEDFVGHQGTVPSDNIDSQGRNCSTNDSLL
Chain of Bone morphogenetic protein receptor type-1B (O00238 whole entry): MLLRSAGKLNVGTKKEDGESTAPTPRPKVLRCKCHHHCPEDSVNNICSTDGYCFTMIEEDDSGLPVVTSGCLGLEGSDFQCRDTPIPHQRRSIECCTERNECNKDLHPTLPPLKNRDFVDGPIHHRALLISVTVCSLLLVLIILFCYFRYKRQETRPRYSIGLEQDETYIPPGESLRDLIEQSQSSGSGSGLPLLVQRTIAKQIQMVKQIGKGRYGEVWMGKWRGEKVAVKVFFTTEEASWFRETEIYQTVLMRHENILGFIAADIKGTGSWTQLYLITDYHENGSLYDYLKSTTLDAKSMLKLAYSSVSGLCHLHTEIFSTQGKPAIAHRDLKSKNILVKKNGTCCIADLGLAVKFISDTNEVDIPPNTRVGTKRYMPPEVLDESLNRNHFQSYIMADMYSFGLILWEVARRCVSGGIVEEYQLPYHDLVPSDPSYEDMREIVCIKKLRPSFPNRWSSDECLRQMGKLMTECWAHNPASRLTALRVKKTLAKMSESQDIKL
Chain of Protein kinase C beta type (P05771 whole entry): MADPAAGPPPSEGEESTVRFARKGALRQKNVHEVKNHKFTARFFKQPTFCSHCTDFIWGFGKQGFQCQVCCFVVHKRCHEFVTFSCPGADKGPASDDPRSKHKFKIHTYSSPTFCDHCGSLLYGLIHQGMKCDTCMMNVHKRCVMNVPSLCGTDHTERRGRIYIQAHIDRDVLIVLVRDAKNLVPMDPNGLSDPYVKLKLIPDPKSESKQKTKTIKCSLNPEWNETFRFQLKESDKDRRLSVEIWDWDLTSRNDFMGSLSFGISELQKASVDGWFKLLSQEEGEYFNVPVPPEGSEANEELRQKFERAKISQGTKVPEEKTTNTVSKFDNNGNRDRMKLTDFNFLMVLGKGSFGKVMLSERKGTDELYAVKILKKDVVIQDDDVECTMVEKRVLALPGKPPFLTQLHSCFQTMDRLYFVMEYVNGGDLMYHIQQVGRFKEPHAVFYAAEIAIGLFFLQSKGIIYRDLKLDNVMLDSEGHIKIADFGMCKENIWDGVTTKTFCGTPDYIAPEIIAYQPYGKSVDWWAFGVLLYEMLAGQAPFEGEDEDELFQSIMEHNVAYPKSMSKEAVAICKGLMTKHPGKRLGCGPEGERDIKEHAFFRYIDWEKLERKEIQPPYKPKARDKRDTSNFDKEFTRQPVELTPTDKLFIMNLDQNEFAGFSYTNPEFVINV
Chain of Phosphorylase b kinase gamma catalytic chain, skeletal muscle/heart isoform (Homo sapiens) (Q16816 whole entry, looked up, canonical isoform): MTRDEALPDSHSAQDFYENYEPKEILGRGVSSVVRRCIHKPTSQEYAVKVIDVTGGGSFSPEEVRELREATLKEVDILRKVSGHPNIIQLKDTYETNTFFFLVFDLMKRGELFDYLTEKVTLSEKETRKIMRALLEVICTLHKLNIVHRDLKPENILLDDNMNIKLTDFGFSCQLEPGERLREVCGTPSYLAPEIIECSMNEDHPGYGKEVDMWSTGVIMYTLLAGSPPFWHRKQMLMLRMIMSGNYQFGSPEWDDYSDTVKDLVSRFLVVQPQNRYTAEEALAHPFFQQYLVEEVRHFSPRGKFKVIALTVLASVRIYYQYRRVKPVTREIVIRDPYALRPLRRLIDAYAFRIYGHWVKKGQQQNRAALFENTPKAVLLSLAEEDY

`Cc1ccc(-c2ccc3c(ccc4sc5c(c43)NC[C@@H](C)NC5=O)n2)cn1` gave a % of inhibition [1] of -9%.

Molecule `CN(C)CCOc1ccc(-c2nc(-c3ccncc3)c(-c3ccc4c(c3)CC/C4=N\O)[nH]2)cc1` has a % of control [2] of 26%.

In the case of `Nc1cnc(N2CCc3cc(S(=O)(=O)Nc4c(F)cc(Cl)cc4F)cc(N4CCCC4=O)c32)nc1` [TP-020n], the % of inhibition [3] was -3.08%.

In the case of `O=C(NOC[C@H](O)CO)c1ccc(F)c(F)c1Nc1ccc(I)cc1F`, the % of control [4] was 71%.

Molecule `Cc1cc([C@@H](C)Nc2ccccc2C(=O)O)c2nc(N3CCOCC3)cc(=O)n2c1` [AZD-6482] has a % of control [5] of 100%.

Work on `Cn1cc(-n2cnc3c(NCc4nc5cc(Cl)c(Cl)cc5[nH]4)nc(N4CCOCC4)nc32)cn1` yielded a % of control [6] of 0.0605%.

Molecule `CCc1cccc(CC)c1NC(=O)c1nn(C)c2c1CCc1cnc(Nc3ccc(C(=O)NC4CCN(C)CC4)cc3OC(F)(F)F)nc1-2` has a pIC50 [7] of under 5.00.

Molecule `CC[C@@H]1[C@H](F)C(=O)N[C@@H]1COc1nccc2cc(C(N)=O)c(OC)cc12` [ZIMLOVISERTIB] has a % of inhibition ([8]; at 0.01 µM) of -5.5%, a % of inhibition ([8]; at 0.04 µM) of -1.7% and a % of inhibition ([8]; at 0.2 µM) of -13.9%. The % of inhibition ([8]; at 1 µM) was -2.7% and the % of inhibition ([8]; at 5 µM) was 3.1%.

`CNC(=O)Nc1ccc(-c2nc(N3CC4CCC(C3)O4)c3cnn(C4CCC5(CC4)OCCO5)c3n2)cc1` gave a % of control [9] of 100%.

Work on `Cc1cc(F)c(C(=O)Nc2cccc(-c3nncn3C(C)C)n2)cc1-n1cnc(C2CC2)c1` yielded a % of control [10] of 98%.

`COCC(=O)NC/C=C/c1ccc2ncnc(Nc3ccc(Oc4ccc(C)nc4)c(C)c3)c2c1` [CP-724714] gave a % of control [11] of 74%.

Molecule `C=CC(=O)Nc1cc(-n2c(=O)ccc3cnc4ccc(-c5ccc(NS(C)(=O)=O)cc5)cc4c32)ccc1C` has a % of control ([12]; at 1 µM) of 100% and a % of control ([12]; at 10 µM) of 100%.

For `O[C@H]1CC[C@H](Nc2ncc3nc(Nc4c(F)cc(F)cc4F)n([C@H]4CCOC4)c3n2)CC1`, the % of control [13] was 97%.
